The assay concerns the target T1, porcine pancreatic lipase (Sus scrofa, UniProt P00591).
T1 construct: gene PNLIP; EC printed is that of carboxylesterase
T1 sequence (P00591 1-450): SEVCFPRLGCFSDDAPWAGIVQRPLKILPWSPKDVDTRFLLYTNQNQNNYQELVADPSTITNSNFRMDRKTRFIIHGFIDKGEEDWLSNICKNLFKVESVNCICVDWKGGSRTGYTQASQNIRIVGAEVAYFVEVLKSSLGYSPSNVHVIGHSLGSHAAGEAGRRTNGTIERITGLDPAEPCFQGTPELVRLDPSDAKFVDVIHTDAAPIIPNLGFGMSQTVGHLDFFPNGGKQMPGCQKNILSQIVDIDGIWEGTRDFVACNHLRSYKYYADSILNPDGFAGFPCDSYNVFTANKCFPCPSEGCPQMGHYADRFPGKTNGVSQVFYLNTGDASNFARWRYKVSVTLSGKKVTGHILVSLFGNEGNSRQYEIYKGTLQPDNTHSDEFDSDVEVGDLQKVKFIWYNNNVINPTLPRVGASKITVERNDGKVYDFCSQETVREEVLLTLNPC
Description: p-nitrophenyl palmitate hydrolysis, absorbance […] nm, microplate. The format is biochemical. To be noted: 10 mM p-nitrophenyl palmitate stock (20 μL), 0.1 M sodium phosphate pH 7, 37 °C, 20 min; unreliable: table and text disagree tenfold.

Data on one compound can be found in PMC6413118, “Active Components, Antioxidant, Inhibition on Metabolic Syndrome Related Enzymes, and Monthly Variations in Mature Leaf Hawk Tea” (Molecules, 2019).

Turning to `CCCCCCCCCCC[C@@H](C[C@@H]1OC(=O)[C@H]1CCCCCC)OC(=O)[C@H](CC(C)C)NC=O` [Orlistat], the “Lipase IC50” value turned out to be 0.6 µg/mL.
